Values of other authors, collected in Sander's compilation of Henry's law constants (doi:10.1021/je0497045).

Experiment: Henry solubility constant Hcp at 298.15 K (mol/(m3 Pa))
Conditions: reference: Plyasunova et al. (2004); cited value

Row | Henry solubility constant Hcp | SMILES
1 | 0.0014 | CCCCS [1-butanethiol]
2 | 0.00042 | CCCCCCCS [1-heptanethiol]
3 | 0.003 | CC(C)SC(C)C [di-(2-propyl)-sulfide]
4 | 0.00095 | CC(C)CCS [3-methyl-1-butanethiol]
5 | 0.012 | CSSSC [2,3,4-trithiapentane]
6 | 0.0047 | CCSCC [diethyl sulfide]
7 | 0.0023 | CCS [ethanethiol]
8 | 0.0022 | CCCSSCCC [dipropyl disulfide]
9 | 0.004 | CCSSCC [diethyl disulfide]
10 | 0.0033 | CCCSCCC [dipropyl sulfide]
11 | 0.00052 | CCCCCCS [1-hexanethiol]
12 | 0.0053 | CSC [dimethyl sulfide]
13 | 0.0013 | CCC(C)S (centres undefined) [2-butanethiol]
14 | 0.0043 | CCCSC [methyl propyl sulfide]
15 | 0.00045 | CC(C)(C)S [2-methyl-2-propanethiol]
16 | 0.00087 | CCCCCS [1-pentanethiol]

Row | SMILES | Henry solubility constant Hcp
17 | CCCS [1-propanethiol] | 0.0017
18 | CS [methanethiol] | 0.0028
19 | S=C=S [carbon disulfide] | 0.00055
